From patent EP3180003B1 (The Regents of the University of California, priority 2014, dated 2016)
Where two headings read alike, the source gives them in different places. Blank lines part the entries; values can stand above or below the molecule they belong to.

Assays:
PKCε [1] = target: T1, PKCε (Homo sapiens, UniProt Q02156); assay: FRET based LANCE Ultra kinase assay; assay type: biochemical
T1 sequence (Q02156 1-737): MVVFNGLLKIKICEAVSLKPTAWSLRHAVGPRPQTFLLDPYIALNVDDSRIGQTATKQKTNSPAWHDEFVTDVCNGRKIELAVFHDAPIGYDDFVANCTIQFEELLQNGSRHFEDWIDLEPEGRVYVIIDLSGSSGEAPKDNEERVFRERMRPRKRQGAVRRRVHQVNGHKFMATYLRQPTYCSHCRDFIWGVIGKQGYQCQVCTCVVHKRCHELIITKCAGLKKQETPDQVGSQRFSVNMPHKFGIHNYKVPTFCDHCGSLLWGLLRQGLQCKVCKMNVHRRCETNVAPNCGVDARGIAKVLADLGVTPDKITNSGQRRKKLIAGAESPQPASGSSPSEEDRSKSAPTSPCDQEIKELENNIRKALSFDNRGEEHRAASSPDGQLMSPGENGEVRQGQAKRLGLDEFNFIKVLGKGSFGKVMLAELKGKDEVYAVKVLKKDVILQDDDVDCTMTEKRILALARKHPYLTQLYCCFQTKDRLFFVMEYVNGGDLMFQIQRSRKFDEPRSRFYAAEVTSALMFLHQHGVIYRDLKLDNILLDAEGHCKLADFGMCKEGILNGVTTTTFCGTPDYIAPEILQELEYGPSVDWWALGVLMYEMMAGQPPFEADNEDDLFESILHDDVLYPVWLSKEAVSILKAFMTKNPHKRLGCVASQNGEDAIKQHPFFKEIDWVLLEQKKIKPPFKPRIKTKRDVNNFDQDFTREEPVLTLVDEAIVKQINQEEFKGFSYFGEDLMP
Description: Certain compounds of this invention were tested in the captioned assay.

PKCε [2] = target: T1, PKCε; assay: Primary PKCε phosphotransferase assay; assay type: biochemical; design: FLAG; made in house; host or cells: COS-7 cells; settings: log of molar IC50
Description: The assay mixture can contain 2 ng FLAG-tagged human PKCε expressed and purified from COS-7 cells in 25 µl kinase buffer containing 20 mM Tris-HCI, pH 7.4, 0.25 mM EGTA, 0.1 mg/ml BSA, 0.72% TritonX-100, 10 mM MgCl2, 0.48 µg/µl L-α-phosphatidylserine (PS) and 0.107 µg/µl sn-1,2-dioleoylglecerol (DG) (Avanti Polar Lipids, Alabaster, AL, USA), 2 µM K(Biotin)-[…], 2.5 µM ATP and 0.05 µCi [^32γ-P]ATP. After incubation at 27 °C for 90 min, the reaction is terminated by adding 12.5 µl of 7.5 M of guanidine hydrochloride. Eight microliters of reaction mixture is spotted onto a pre-cut streptavidin-coated SAM Biotin Capture membrane. […] The membrane is then air dried at room temperature for 60 min and radioactivity remaining on the membrane can be measured by liquid scintillation counting. Specific PKCε activity can then be calculated as the difference between cpms detected in the presence and absence of lipids (PS and DG). Maximal PKCε activity (positive control) can be detected in reactions lacking an inhibitor. […]
IC50 values can be calculated from normalized dose-response curves by nonlinear regression analysis.
The ability of the compounds disclosed herein to inhibit PKCε can be assessed using the primary PKCε assay described above using the biotinylated substrate […]. […]

PKCε [3] = target: T1, PKCε; assay: Cell-based assay for PKCε modulation of GABAA receptors (γ2 S327 phosphorylation, ELISA format); settings: HEK293 cell line expressing α1β2γ2 GABAA receptors and over-expressing PKCε; anti-γ2S(P)327 ELISA
Description: PKCε inhibition can also be measured by assaying benzodiazepine modulation of GABAA receptors in intact cells. PKCε decreases benzodiazepine potency at GABAA receptors by phosphorylating S327 of GABAA y2 subunits. The GABAA cell-based assay uses a HEK293 cell line that expresses α1β2γ2 GABAA receptors and over-expresses PKCε. […] This 6-fold difference in benzodiazepine potency can be detected without addition of a PKC activator. The assay is performed using an anti-phospho antibody that recognizes γ2S(P)327 in an ELISA format to generate 8 point dose-response curves for each compound. Background values, detected from wells in which no primary antibody was added, are subtracted from sample values. Maximal phosphorylation (positive control) is detected in reactions containing phorbol ester and lacking an inhibitor.

PKCε [4] = target: T1, PKCε; assay: Inhibition of PKCε (Example 4); assay type: biochemical
PKCγ = target: T2, PKCγ (Homo sapiens, UniProt P05129); assay: Inhibition of conventional PKCγ (Example 4); assay type: biochemical; settings: for inhibition of conventional PKCγ: at 10 µM, result in words
T2 construct: purchased Invitrogen (Carlsbad, CA, USA)
Description: (§1) For example, to measure inhibition of conventional PKCγ, novel PKCδ, and atypical PKCζ, the same kinase assay disclosed above for PKCε can be used with recombinant human PKCγ, PKCδ, or PKCζ purchased from Invitrogen (Carlsbad, CA, USA) in place of PKCs, with 0.4 mM CaCl2 assay buffer for PKCγ.
(§2) The specificity of the compounds disclosed herein for inhibition of PKCε can be determined by examining their ability to inhibit ROCK1 and selected members of each PKC subfamily according to the protocols of the counter-screening assay for selectivity disclosed herein. This assay can be performed according to the biochemical assay for PKCε described above with some modifications. Rather than varying the concentrations of the inhibitors, only 10µM of each compound can be used.

PKCδ = target: T3, PKCδ (Homo sapiens, UniProt Q05655); assay: Inhibition of novel PKCδ (Example 4); assay type: biochemical
T3 construct: purchased Invitrogen (Carlsbad, CA, USA)
Description: as §1, §2

PKCθ = target: T4, PKCθ (Homo sapiens, UniProt Q04759); assay: Inhibition of novel PKCθ (Example 4); assay type: biochemical
T4 construct: purchased Invitrogen P2996
Excerpt: Inhibition of PKC theta activity can be measured using the same primary phosphotransferase assay for PKCε except one substitutes recombinant human PKC theta purchased from Invitrogen for PKCε. PKC theta can also be assayed with a fluorescence polarization (FP) assay using the commercially available Protein Kinase C Assay Kit, Red, from Invitrogen (Product ID No P2941), essentially in accordance with the protocol supplied by the manufacturer. The substrate used is […] (Mw 1561), which can be obtained from Invitrogen (Product ID No P2760). The isozyme PKC theta can be obtained from Invitrogen (Product ID No P2996).
as §2

PKCζ = target: T5, PKCζ (Homo sapiens, UniProt Q05513); assay: Inhibition of atypical PKCζ (Example 4); assay type: biochemical; settings: for activity against atypical PKCζ: at 10 µM, result in words
T5 construct: purchased Invitrogen (Carlsbad, CA, USA)
T5 sequence (Q05513 1-592): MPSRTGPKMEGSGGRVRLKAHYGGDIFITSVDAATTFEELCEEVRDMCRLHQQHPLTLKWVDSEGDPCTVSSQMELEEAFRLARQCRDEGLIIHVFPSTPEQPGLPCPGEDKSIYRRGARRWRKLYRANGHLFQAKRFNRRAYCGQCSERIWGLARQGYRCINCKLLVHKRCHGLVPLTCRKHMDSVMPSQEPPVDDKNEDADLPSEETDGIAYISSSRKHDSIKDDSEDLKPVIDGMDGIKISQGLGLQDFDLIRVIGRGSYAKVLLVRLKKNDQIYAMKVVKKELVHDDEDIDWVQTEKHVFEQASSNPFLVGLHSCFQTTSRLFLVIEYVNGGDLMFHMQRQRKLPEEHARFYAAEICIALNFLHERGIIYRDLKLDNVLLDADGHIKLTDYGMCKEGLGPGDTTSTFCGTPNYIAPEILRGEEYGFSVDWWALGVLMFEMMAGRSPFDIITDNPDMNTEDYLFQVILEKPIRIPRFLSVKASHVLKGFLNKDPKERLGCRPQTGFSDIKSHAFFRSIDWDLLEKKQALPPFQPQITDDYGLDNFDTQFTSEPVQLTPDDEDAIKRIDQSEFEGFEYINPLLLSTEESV
Description: as §1, §2

C57BL/6 mice = assay: Ethanol-induced loss of righting reflex (LORR) in vivo; settings: 10 mg/kg i.p.
Description: Compound 1 was administered (10 mg/kg) i.p. to C57BL/6 mice, which were administered 20 min later 3.6 g/kg ethanol i.p. to induce loss of righting. […] These findings indicate that this class of compounds can cross the blood-brain barrier and act as a PKCε inhibitor, and prolong the duration of the LORR in the treated animals. Such increased signs of ethanol intoxication are contemplated to be aversive and to limit ethanol self-administration.

[5] = log of molar IC50, read-out: Log IC50 (converted)

T4 sequence (Q04759 whole entry): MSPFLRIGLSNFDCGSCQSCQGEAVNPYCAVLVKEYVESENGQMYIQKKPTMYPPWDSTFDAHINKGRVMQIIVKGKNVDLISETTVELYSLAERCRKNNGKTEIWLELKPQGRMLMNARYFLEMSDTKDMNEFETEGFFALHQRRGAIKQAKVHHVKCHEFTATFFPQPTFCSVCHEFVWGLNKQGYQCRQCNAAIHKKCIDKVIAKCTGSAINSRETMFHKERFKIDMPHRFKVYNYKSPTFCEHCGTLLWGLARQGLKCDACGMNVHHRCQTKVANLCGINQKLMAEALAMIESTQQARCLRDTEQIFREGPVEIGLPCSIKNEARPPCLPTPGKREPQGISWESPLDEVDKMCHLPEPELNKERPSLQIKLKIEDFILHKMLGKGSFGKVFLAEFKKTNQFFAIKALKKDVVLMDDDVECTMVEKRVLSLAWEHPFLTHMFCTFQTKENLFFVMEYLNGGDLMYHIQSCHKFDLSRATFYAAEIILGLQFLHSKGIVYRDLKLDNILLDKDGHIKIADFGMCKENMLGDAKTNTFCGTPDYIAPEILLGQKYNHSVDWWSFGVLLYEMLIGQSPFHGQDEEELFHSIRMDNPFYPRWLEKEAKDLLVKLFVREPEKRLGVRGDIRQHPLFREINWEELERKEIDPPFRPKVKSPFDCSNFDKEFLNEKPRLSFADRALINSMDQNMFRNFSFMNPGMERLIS
T3 sequence (Q05655 whole entry): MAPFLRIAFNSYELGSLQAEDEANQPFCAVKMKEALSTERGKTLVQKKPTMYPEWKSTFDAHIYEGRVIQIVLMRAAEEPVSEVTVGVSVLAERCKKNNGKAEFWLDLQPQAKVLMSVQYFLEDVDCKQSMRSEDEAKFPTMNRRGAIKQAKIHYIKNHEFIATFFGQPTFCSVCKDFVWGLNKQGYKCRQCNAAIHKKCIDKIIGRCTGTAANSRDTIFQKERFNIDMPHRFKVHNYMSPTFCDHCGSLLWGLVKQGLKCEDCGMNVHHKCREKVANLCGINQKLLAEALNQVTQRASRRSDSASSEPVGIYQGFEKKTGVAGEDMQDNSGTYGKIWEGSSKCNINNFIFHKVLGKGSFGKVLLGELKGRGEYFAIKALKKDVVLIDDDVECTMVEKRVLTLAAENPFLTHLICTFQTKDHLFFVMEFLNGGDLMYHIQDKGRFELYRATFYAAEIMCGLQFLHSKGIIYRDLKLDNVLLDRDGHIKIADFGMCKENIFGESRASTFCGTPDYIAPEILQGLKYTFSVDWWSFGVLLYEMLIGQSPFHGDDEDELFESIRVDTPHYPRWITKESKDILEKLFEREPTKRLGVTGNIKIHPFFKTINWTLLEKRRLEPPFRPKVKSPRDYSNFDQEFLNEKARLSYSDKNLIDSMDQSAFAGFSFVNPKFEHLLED

SMILES: NC(C(=O)NCC1(c2ccc(Cl)cc2)CC1)[C@H]1CC[C@H](C(=O)Nc2ccncc2)CC1 (stereo partly drawn) [Compound 2]
- IC50 (PKCε [1]; [5]): 3240 nM
- IC50 (PKCε [2]): 1690 nM

SMILES: NC(CNC(=O)C1(c2ccc(F)cc2)CC1)[C@H]1CC[C@H](C(=O)Nc2ccncc2)CC1 (stereo partly drawn) [Compound 3]
- Log IC50 (PKCε [1]; log of molar IC50): -6.835
- IC50 (PKCε [1]; read-out: IC50): 146 nM

- IC50 (PKCε [3]): 8.9 nM
- IC50 (PKCε [1]; read-out: IC50): 56.6 nM
- Ki (PKCε [4]; PKCε, read-out: Ki): < 20 nM
- Ki (PKCε [4]; n=3, read-out: PKCε Ki): 17 nM
- IC50 (PKCε [4]; read-out: PKCε Log IC50 (converted)): 55 nM
- inhibition at 10 µM (PKCγ; 10 µM inhibitor, n=3, read-out: Percent inhibition of PKC activity, Conventional PKCγ): 16.7 ± 3.8%
- inhibition of conventional PKCγ (PKCγ): inhibited
- inhibition at 10 µM (PKCδ; 10 µM inhibitor, n=3, read-out: Percent inhibition of PKC activity, Novel PKCδ): 96.3 ± 0.7%
- Ki (PKCδ; n=3): 173 nM
- IC50 (PKCδ; read-out: PKCδ Log IC50 (converted)): 708 nM
- inhibition at 10 µM (PKCθ; 10 µM inhibitor, n=3, read-out: Percent inhibition of PKC activity, Novel PKCθ): 96.9 ± 1.1%
- Ki (PKCθ; n=3): 91.7 nM
- IC50 (PKCθ; read-out: PKCθ Log IC50 (converted)): 372 nM
- inhibition at 10 µM (PKCζ; 10 µM inhibitor, n=3, read-out: Percent inhibition of PKC activity, Atypical PKCζ): 55.9 ± 3.8%
- IC50 (PKCε [2]): 131 nM
SMILES: NC(CNC(=O)C1(c2ccc(Cl)cc2)CC1)[C@H]1CC[C@H](C(=O)Nc2ccncc2)CC1 (relative stereo) [Compound 1, trans-4-[1-Amino-2-[[[1-(4-chlorophenyl)cyclopropyl]carbonyl]amino]ethyl]-N-4-pyridinyl-cyclohexylcarboxamide]
- increase of LORR duration (C57BL/6 mice; 20 min before 3.6 g/kg ethanol i.p., versus vehicle-treated mice, p = 0.036): 45%
- LORR duration (C57BL/6 mice; drug-treated mice (n=10), 3.6 g/kg ethanol i.p., vehicle 31.4 ± 4.9 (n=8)): 45.7 ± 4.0

SMILES: NC(C(=O)NC1COc2ccccc21)[C@H]1CC[C@H](C(=O)Nc2ccncc2)CC1 (stereo partly drawn) [Compound 10]
- Log IC50 (PKCε [1]; log of molar IC50): -5.695
- IC50 (PKCε [1]; read-out: IC50): 2020 nM

SMILES: CC(C)(C(=O)NCC(N)[C@H]1CC[C@H](C(=O)Nc2ccncc2)CC1)c1ccc(Cl)cc1 (stereo partly drawn) [Compound 9]
- Log IC50 (PKCε [1]; log of molar IC50): -7.398
- IC50 (PKCε [1]; read-out: IC50): 40 nM
- inhibition of conventional PKCγ (PKCγ): inhibited
- activity against atypical PKCζ (PKCζ): almost no activity

SMILES: CC(C)(C(=O)NCC(N)[C@H]1CC[C@H](C(=O)Nc2ccncc2)CC1)c1cccs1 (stereo partly drawn) [Compound 7]
- Log IC50 (PKCε [1]; log of molar IC50): -6.553
- IC50 (PKCε [1]; read-out: IC50): 280 nM

SMILES: NC(C(=O)N[C@@H]1CCCc2ccccc21)[C@H]1CC[C@H](C(=O)Nc2ccncc2)CC1 (stereo partly drawn) [Compound 11]
- IC50 (PKCε [1]; [5]): 3090 nM
- IC50 (PKCε [1]; read-out: IC50): 3090 nM

SMILES: NC(CNC(=O)C1(c2ccc(F)c(F)c2)CC1)[C@H]1CC[C@H](C(=O)Nc2ccncc2)CC1 (stereo partly drawn) [Compound 6]
- Log IC50 (PKCε [1]; log of molar IC50): -7.282

SMILES: NC(CNC(=O)C1(c2ccc(F)cc2)CCCC1)[C@H]1CC[C@H](C(=O)Nc2ccncc2)CC1 (stereo partly drawn) [Compound 5]
- Log IC50 (PKCε [1]; log of molar IC50): -7.370
- PKCε Log IC50(M) (PKCε [4]; log IC50 ± SE, n=3): -7.37 ± 0.03 M
- inhibition of conventional PKCγ (PKCγ): inhibited
- activity against atypical PKCζ (PKCζ): almost no activity

SMILES: NC(C(=O)NCc1ccc(F)cc1)[C@H]1CC[C@H](C(=O)Nc2ccncc2)CC1 (stereo partly drawn) [Compound 12]
- Log IC50 (PKCε [1]; log of molar IC50): -5.625
- IC50 (PKCε [1]; read-out: IC50): 2370 nM

SMILES: NC(CNC(=O)C1(c2ccc(F)cc2Cl)CCCC1)[C@H]1CC[C@H](C(=O)Nc2ccncc2)CC1 (stereo partly drawn) [Compound 4]
- Log IC50 (PKCε [1]; log of molar IC50): -6.917
- IC50 (PKCε [1]; read-out: IC50): 121 nM

SMILES: NC(CNC(=O)C1CCc2cc(Cl)ccc21)[C@H]1CC[C@H](C(=O)Nc2ccncc2)CC1 (stereo partly drawn) [Compound 8]
- Log IC50 (PKCε [1]; log of molar IC50): -6.445
- IC50 (PKCε [1]; read-out: IC50): 359 nM
